Columns and labels:
[1] = system: prostate cancer lesions (PC-3 xenograft); test: In vivo imaging in PC-3 mouse xenograft model; set-up: species or system BALB/c nude mice
Protocol: Male BALB/c nude mice (BALB/c-nude) were purchased from Beijing SLAC Laboratory Animal Co., Ltd. Five-week-old nude mice were subcutaneously injected with 5×10^6 PC-3 cells on the back. The tumor was allowed to grow for 15 to 20 days until it reached a diameter of 0.5-1.5 cm. The BALB/c nude mice bearing tumors were anesthetized with sedatives and anesthetics. Once the mice were immobilized, a designated dose (0.1 mg, 0.5 mg, 1 mg, 2 mg per injection) of GGa-ICG or ssDNA-ICG was injected through the tail vein. At certain time points, fluorescent images of live mice were collected using the IVIS Lumina II in vivo imaging system. For ex vivo fluorescent experiments, tumor-bearing mice that were intravenously injected with GGa-ICG or ssDNA-ICG were euthanized by cervical dislocation 1 hour after injection under anesthesia. After dissection, organs including brain, liver, kidney, spleen, lung, heart, and tumor tissue were imaged using the IVIS Lumina II in vivo imaging system as described above.

PSCA = biological target: T1, PSCA (Homo sapiens, UniProt O43653); test: In vivo blocking of GGa-ICG by PSCA antibodies; set-up: endogenous in cells; species or system nude mice; conditions: 1 mg PSCA antibody pre-injected, GGa-ICG 12 hours later
T1 sequence (O43653 12-83): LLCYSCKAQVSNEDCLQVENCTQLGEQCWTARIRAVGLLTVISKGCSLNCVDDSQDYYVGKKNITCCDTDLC
Protocol: 1 mg of PSCA antibody was pre-injected into nude mice, followed by injection of GGa-ICG 12 hours later, and live imaging was performed to observe the phenomenon of GGa-ICG binding.

[2] = doses of 0.1-2 mg/animal, tail vein

“GGa-ICG: near-infrared probe: PSCA-binding nucleic acid aptamer GGa linked at 3′ to an ICG derivative dye (DNA TGCCACTACAGCTGGTTCGGTTTGGTGACTTCGTTCTTCGTTGTGGT; 3'-ICG dye, further chemistry not given here)” was tested, and the “time of optimal detection after injection” value [1, 2] was 8 to 12 h, the “time until which detection lasted” value [1, 2] was 24 to 48 h and the “binding to prostate cancer lesions in vivo” value ([1]; intravenous injection, at 2, 4, and 8 hours) was “specifically bound”. For the same substance, the metabolism pathway ([1]; mouse, in vivo) was “partially metabolized via the liver and kidney pathways”, the “time within which probe in the organs was essentially metabolized” value ([1]; organs of tumor-bearing mice) was at most 24 h and the “blocking of tumor visualization by PSCA antibody” value (PSCA) was “Completely Blocked”.

— US20240358862A1, “Synthesis Method and Application of a Near-infrared Probe GGa-ICG specific binding to PSCA” (Guangzhou Shiyun Biotechnology Co., Ltd, priority 2022, published 2024)
